Source: paper PMC7156458, “Synthetic biology based construction of biological activity-related library of fungal decalin-containing diterpenoid pyrones” (Nature Communications, 2020)

Target: Aβ42 (Homo sapiens, UniProt P05067)
Test: Th-T (thioflavin-T) assay of Aβ42 aggregation
Format: biochemical
Details: for Th-T fluorescence, mean of three wells: Aβ42 aggregation time course

Chain of Aβ42 (P05067 672-713): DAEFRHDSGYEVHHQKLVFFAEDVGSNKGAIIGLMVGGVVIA

With C=C1CC[C@@H]2[C@](C)(CC[C@H]3O[C@H](C=C(C)C)C[C@@]23C)[C@@H]1Cc1c(OC)oc(CO)c(C)c1=O [Compound 20] as the compound, how does the “delay of the nucleation phase” value read?
The value was “no delay”.

And the “elongation of Aβ42” value?
The value was “partly suppressed the elongation of Aβ42”.

And the “first Th-T assay result” value (Aβ42 (10 μM) ± DPPs (20 μM), room temperature)?
Its value is “slightly suppressed”.

What about the “Th-T fluorescence, mean of three wells” value (reading M117) of the same compound?
Its value is 4.214.

And the “Th-T fluorescence, mean of three wells” value (reading M118)?
Its value is 4.194.

What about the “Th-T fluorescence, mean of three wells” value (reading M119) of the same compound?
Its value is 4.178.

And the “Th-T fluorescence, mean of three wells” value (reading M120)?
The value was 4.1845.

And the “Th-T fluorescence, mean of three wells” value (reading M121)?
The value was 4.166.

What about the “Th-T fluorescence, mean of three wells” value (reading M122) of the same compound?
The value was 4.139.

What about the “Th-T fluorescence, mean of three wells” value (reading M123) of the same compound?
The value was 4.16.

What about the “Th-T fluorescence, mean of three wells” value (reading M124) of the same compound?
The value was 4.194.

What about the “Th-T fluorescence, mean of three wells” value (reading M125) of the same compound?
Its value is 4.155.

And the “Th-T fluorescence, mean of three wells” value (reading M126)?
Its value is 4.13.

And the “Th-T fluorescence, mean of three wells” value (reading M127)?
The value was 4.172.

And the “Th-T fluorescence, mean of three wells” value (reading M128)?
The value was 4.137.

And the “Th-T fluorescence, mean of three wells” value (reading M129)?
Its value is 4.1254.

And the “Th-T fluorescence, mean of three wells” value (reading M130)?
Its value is 4.128.

And the “Th-T fluorescence, mean of three wells (Fig. 7a)” value (shortened to “Th-T fluorescence … (Fig. 7a)”) (column suffix _10, measurement M19)?
The value was 3.317.

What about the “Th-T fluorescence … (Fig. 7a)” value (column suffix _10, measurement M20) of the same compound?
The value was 3.391.

And the “Th-T fluorescence … (Fig. 7a)” value (column suffix _10, measurement M21)?
Its value is 3.434.

And the “Th-T fluorescence … (Fig. 7a)” value (column suffix _10, measurement M22)?
Its value is 3.448.

What about the “Th-T fluorescence … (Fig. 7a)” value (column suffix _10, measurement M23) of the same compound?
Its value is 3.464.

What about the “Th-T fluorescence … (Fig. 7a)” value (column suffix _10, measurement M24) of the same compound?
The value was 3.465.

And the “Th-T fluorescence … (Fig. 7a)” value (column suffix _10, measurement M25)?
Its value is 3.454.

And the “Th-T fluorescence … (Fig. 7a)” value (column suffix _10, measurement M26)?
Its value is 3.452.

And the “Th-T fluorescence … (Fig. 7a)” value (column suffix _10, measurement M27)?
Its value is 3.468.

And the “Th-T fluorescence … (Fig. 7a)” value (column suffix _10, measurement M28)?
The value was 3.469.

What about the “Th-T fluorescence … (Fig. 7a)” value (column suffix _10, measurement M29) of the same compound?
Its value is 3.45.

What about the “Th-T assay signal, mean of three wells (Fig. 7a)” value (“Th-T assay signal, mean” for short) (column suffix _10, reading M1) of the same compound?
The value was 0.2292.

What about the “Th-T assay signal, mean” value (column suffix _10, reading M2) of the same compound?
The value was 0.2545.

What about the “Th-T assay signal, mean” value (column suffix _10, reading M3) of the same compound?
The value was 0.2762.

And the “Th-T assay signal, mean” value (column suffix _10, reading M4)?
Its value is 0.324.

What about the “Th-T assay signal, mean” value (column suffix _10, reading M5) of the same compound?
Its value is 0.3535.

What about the “Th-T assay signal, mean” value (column suffix _10, reading M6) of the same compound?
Its value is 0.4731.

What about the “Th-T assay signal, mean” value (column suffix _10, reading M7) of the same compound?
The value was 0.5173.

And the “Th-T assay signal, mean” value (column suffix _10, reading M8)?
Its value is 0.5644.

And the “Th-T assay signal, mean” value (column suffix _10, reading M9)?
Its value is 0.6382.

And the “Th-T assay signal, mean” value (column suffix _10, reading M10)?
The value was 0.6392.

And the “Th-T assay signal, mean” value (column suffix _10, reading M11)?
Its value is 0.7204.

What about the “Th-T assay signal, mean” value (column suffix _10, reading M12) of the same compound?
Its value is 0.8506.

And the “Th-T assay signal, mean” value (column suffix _10, reading M13)?
The value was 1.108.

What about the “Th-T assay signal, mean” value (column suffix _10, reading M14) of the same compound?
Its value is 1.585.

And the “Th-T assay signal, mean” value (column suffix _10, reading M15)?
The value was 2.1202.

What about the “Th-T assay signal, mean” value (column suffix _10, reading M16) of the same compound?
The value was 2.635.

What about the “Th-T assay signal, mean” value (column suffix _10, reading M17) of the same compound?
The value was 2.976.

And the “Th-T assay signal, mean” value (column suffix _10, reading M18)?
Its value is 3.206.

And the “Fig. 7a Th-T reading, mean of three wells” value (“Fig. 7a Th-T reading, mean” below) (column suffix _10, reading M85)?
The value was 3.354.

And the “Fig. 7a Th-T reading, mean” value (column suffix _10, reading M86)?
The value was 3.35.

What about the “Fig. 7a Th-T reading, mean” value (column suffix _10, reading M87) of the same compound?
Its value is 3.36.

And the “Fig. 7a Th-T reading, mean” value (column suffix _10, reading M88)?
The value was 3.344.

And the “Fig. 7a Th-T reading, mean” value (column suffix _10, reading M89)?
The value was 3.359.

And the “Fig. 7a Th-T reading, mean” value (column suffix _10, reading M90)?
The value was 3.344.

What about the “Fig. 7a Th-T reading, mean” value (column suffix _10, reading M91) of the same compound?
Its value is 3.334.

What about the “Fig. 7a Th-T reading, mean” value (column suffix _10, reading M92) of the same compound?
Its value is 3.329.

What about the “Fig. 7a Th-T reading, mean” value (column suffix _10, reading M93) of the same compound?
The value was 3.316.

What about the “Fig. 7a Th-T reading, mean” value (column suffix _10, reading M94) of the same compound?
The value was 3.328.

And the “Fig. 7a Th-T reading, mean” value (column suffix _10, reading M95)?
Its value is 3.309.

What about the “Fig. 7a Th-T reading, mean” value (column suffix _10, reading M96) of the same compound?
The value was 3.312.

What about the “Fig. 7a Th-T reading, mean” value (column suffix _10, reading M97) of the same compound?
The value was 3.295.

And the “Fig. 7a Th-T reading, mean” value (column suffix _10, reading M98)?
Its value is 3.318.

What about the “Fig. 7a Th-T reading, mean” value (column suffix _10, reading M99) of the same compound?
The value was 3.3.

What about the “Fig. 7a Th-T reading, mean” value (column suffix _10, reading M100) of the same compound?
Its value is 3.294.

What about the “Fig. 7a Th-T reading, mean” value (column suffix _10, reading M101) of the same compound?
Its value is 3.313.

And the “Fig. 7a Th-T reading, mean” value (column suffix _10, reading M102)?
The value was 3.28.

What about the “Fig. 7a Th-T reading, mean” value (column suffix _10, reading M103) of the same compound?
Its value is 3.294.

And the “Fig. 7a Th-T reading, mean” value (column suffix _10, reading M104)?
Its value is 3.29.

And the “Fig. 7a Th-T reading, mean” value (column suffix _10, reading M105)?
Its value is 3.266.

What about the “Fig. 7a Th-T reading, mean” value (column suffix _10, reading M106) of the same compound?
The value was 3.268.

What about the “Th-T fluorescence … (Fig. 7a)” value (column suffix _20, measurement M19) of the same compound?
The value was 3.146.

And the “Th-T fluorescence … (Fig. 7a)” value (column suffix _20, measurement M20)?
Its value is 3.22.

What about the “Th-T fluorescence … (Fig. 7a)” value (column suffix _20, measurement M21) of the same compound?
Its value is 3.265.

And the “Th-T fluorescence … (Fig. 7a)” value (column suffix _20, measurement M22)?
The value was 3.294.

And the “Th-T fluorescence … (Fig. 7a)” value (column suffix _20, measurement M23)?
Its value is 3.285.

And the “Th-T fluorescence … (Fig. 7a)” value (column suffix _20, measurement M24)?
The value was 3.3066.

And the “Th-T fluorescence … (Fig. 7a)” value (column suffix _20, measurement M25)?
The value was 3.328.

What about the “Th-T fluorescence … (Fig. 7a)” value (column suffix _20, measurement M26) of the same compound?
The value was 3.367.

What about the “Th-T fluorescence … (Fig. 7a)” value (column suffix _20, measurement M27) of the same compound?
Its value is 3.353.

What about the “Th-T fluorescence … (Fig. 7a)” value (column suffix _20, measurement M28) of the same compound?
Its value is 3.346.

What about the “Th-T fluorescence … (Fig. 7a)” value (column suffix _20, measurement M29) of the same compound?
The value was 3.34.

And the “Th-T fluorescence … (Fig. 7a)” value (column suffix _20, measurement M30)?
The value was 3.361.

And the “Th-T assay signal, mean” value (column suffix _20, reading M1)?
Its value is 0.2139.

What about the “Th-T assay signal, mean” value (column suffix _20, reading M2) of the same compound?
The value was 0.2391.

And the “Th-T assay signal, mean” value (column suffix _20, reading M3)?
The value was 0.2688.

What about the “Th-T assay signal, mean” value (column suffix _20, reading M4) of the same compound?
The value was 0.2877.

And the “Th-T assay signal, mean” value (column suffix _20, reading M5)?
The value was 0.33.

What about the “Th-T assay signal, mean” value (column suffix _20, reading M6) of the same compound?
Its value is 0.4061.

And the “Th-T assay signal, mean” value (column suffix _20, reading M7)?
Its value is 0.4716.

And the “Th-T assay signal, mean” value (column suffix _20, reading M8)?
Its value is 0.5038.

And the “Th-T assay signal, mean” value (column suffix _20, reading M9)?
Its value is 0.5302.

What about the “Th-T assay signal, mean” value (column suffix _20, reading M10) of the same compound?
Its value is 0.5653.

And the “Th-T assay signal, mean” value (column suffix _20, reading M11)?
Its value is 0.6147.

And the “Th-T assay signal, mean” value (column suffix _20, reading M12)?
The value was 0.7691.

And the “Th-T assay signal, mean” value (column suffix _20, reading M13)?
Its value is 1.152.

And the “Th-T assay signal, mean” value (column suffix _20, reading M14)?
The value was 1.832.

And the “Th-T assay signal, mean” value (column suffix _20, reading M15)?
The value was 2.436.

And the “Th-T assay signal, mean” value (column suffix _20, reading M16)?
The value was 2.813.

And the “Th-T assay signal, mean” value (column suffix _20, reading M17)?
Its value is 2.993.

What about the “Th-T assay signal, mean” value (column suffix _20, reading M18) of the same compound?
The value was 3.081.

What about the “Fig. 7a Th-T reading, mean” value (column suffix _20, reading M85) of the same compound?
The value was 3.286.

What about the “Fig. 7a Th-T reading, mean” value (column suffix _20, reading M86) of the same compound?
Its value is 3.29.

What about the “Fig. 7a Th-T reading, mean” value (column suffix _20, reading M87) of the same compound?
The value was 3.2956.

And the “Fig. 7a Th-T reading, mean” value (column suffix _20, reading M88)?
Its value is 3.332.

What about the “Fig. 7a Th-T reading, mean” value (column suffix _20, reading M89) of the same compound?
Its value is 3.367.

What about the “Fig. 7a Th-T reading, mean” value (column suffix _20, reading M90) of the same compound?
Its value is 3.341.

And the “Fig. 7a Th-T reading, mean” value (column suffix _20, reading M91)?
The value was 3.299.

What about the “Fig. 7a Th-T reading, mean” value (column suffix _20, reading M92) of the same compound?
Its value is 3.303.

What about the “Fig. 7a Th-T reading, mean” value (column suffix _20, reading M93) of the same compound?
The value was 3.313.

What about the “Fig. 7a Th-T reading, mean” value (column suffix _20, reading M94) of the same compound?
Its value is 3.332.

What about the “Fig. 7a Th-T reading, mean” value (column suffix _20, reading M95) of the same compound?
The value was 3.309.

And the “Fig. 7a Th-T reading, mean” value (column suffix _20, reading M96)?
Its value is 3.268.

And the “Fig. 7a Th-T reading, mean” value (column suffix _20, reading M97)?
The value was 3.26.

What about the “Fig. 7a Th-T reading, mean” value (column suffix _20, reading M98) of the same compound?
The value was 3.269.

And the “Fig. 7a Th-T reading, mean” value (column suffix _20, reading M99)?
The value was 3.3.

And the “Fig. 7a Th-T reading, mean” value (column suffix _20, reading M100)?
Its value is 3.292.
